We go through one compound from publication PMC6211230, “Assessment of the antiproliferative and apoptotic roles of sulfonamide carbonic anhydrase IX inhibitors in HeLa cancer cell line” (Journal of Enzyme Inhibition and Medicinal Chemistry, 2018).

What all share (type): cell-based, human
The test system of one test is MDA-MB-231. The test can be described thus: WST-1 cytotoxicity, MDA-MB-231. The method, then:
(§1) Cancer and normal cell lines were purchased from ATCC and stored in liquid nitrogen. HT-29 (colon adenoma cancer), HeLa (cervix adenoma cancer cell), MDA-MB-231 (breast adenoma cancer cell) and HEK-293 (embryonic kidney epithelial cell), PNT-1A (normal prostate cells) cell lines were incubated in DMEM: F-12 and RPMI-1640, including 10% Foetal Bovine Serum (FBS), 100 μg/mL streptomycin/100 IU/mL penicillin, at 37 °C in an incubator containing 5% CO2, 95% air in a humid atmosphere.
(§2) The cytotoxic effects of the substances were evaluated with WST-1 kits (Roche, Germany) in accordance with the manufacturer’s protocols. The cells were plated on 96-well plates (10^4 cells in each well). After incubation for 24 h, the media were discarded and the substances and Cisplatin as the control drug, at doses of 0, 2.5, 5, 10, 25, 50, 100, and 200 μM, were incubated for 24, 48, and 72 h. WST-1 reactive of 10 µl was added to all wells. Following 4 h incubation, the measurements were taken on a plate reader (Spectramax M5) at wavelengths of 450 and 630 nm. Graphs were then created and the IC50 value of each substance was calculated.
(Tetrazolium dyes change colour on reduction, which living cells bring about.)

The subject of test [1] is HeLa cells. The test can be described thus: Intracellular free amino acids by LC-MS/MS. The conditions noted are these: 25 μM, 24 h, vs negative control. The method, then: The intracellular free amino acid level was measured according to the Chen et al method. HeLa cells were planted in 10 cm^2 cell culture dishes, and following 24 h treatment with sulfonamide at a dose of 25 μM, the growth medium was poured out, and the cells were swiftly washed twice with 5 ml cold PBS. Pre-cooled MeOH (−60 °C) was added, and the cells were stripped with a cell scraper. The cell suspension obtained was replaced in 15 ml conic tubes. The samples were kept in liquid nitrogen for 10 min and then dissolved on ice, which was triplicated until the cells were shredded. The samples were centrifuged at 3.000 g at 4 °C, for 30 min, and the supernatants were transferred to new tubes. The amino acid level in the supernatant was measured using LC-MS/MS according to the protocol of the Jasem kit. The Jasem free amino acid assay kit is used for studies involving the diagnosis of various hereditary metabolic disorders and the feeding of newborns with hereditary metabolic disorders. In this study, the protocol used to determine the intracellular free amino acid is as follows. […] 27 amino acids in the acquired supernatant were analysed in HPLC vials using LC-MS/MS (Shimadzu 8045, Kyoto, Japan). The residual pellet was lysed in 1 ml lysis buffer, protein concentration of which was detected using the BCA protein assay kit (Thermo Fisher Scientific, Waltham, MA, USA). […]

The test system of another test is HeLa. The test can be described thus: WST-1 cytotoxicity, HeLa. The method, then:
as §1, §2

For test [2], the system named is HeLa cells. The experiment in a line: Western blot of cleaved caspases 3, 8, 9 and cleaved PARP. The following applies: most notably 10 μM, 24 h. The method, then: The cells were seeded on 6 cm^2 cell culture dishes, and treated with sulfonamide compounds, at doses of 10 and 25 μM, for 24 h. The cells were then washed with cold PBS, which was followed by lysis with RIPA lysis buffer (10 mM Tris-HC1 pH =8, 1 mM EDTA, 1 mM EGTA, 140 mM NaCl, 1% TritonX-100, 0.1 SDS, 0.1% Sodium deoxycholate), 1X phosphates and protease inhibitor (Santa Cruz Biotechnology, Dallas, USA). The acquired supernatants from the lysates which were centrifuged at 12000 g, +4 °C, for 10 min, were transferred to new tubes. Protein concentration was detected using the protein assay kit BCA (Thermo Fisher Scientific, Waltham, MA). After a 30-min period of protein (50 µg) standing in 10% SDS-PAGE gel at 50 V and at 80 V for 3 h, those were blotted to PVDF membrane at 70 V for 5 min (Bio-Rad Turbo Transfer System, Segrate (MI), Italy). After embedding in 1X TBST (12,1 gr Tris, pH 7.5, 70 gr NaCl, 0.1% Tween-20) containing 5% dry milk or 5% BSA, the primer monoclonal antibodies Cleaved Caspase 3,8,9, Cleaved PARP (Millipore) CA IX and Beta-actin, were applied to the membrane and left overnight, which was followed by washing with 1X TBS-T and an incubation period with secondary antibodies of HRP rabbit (Cell signaling, Danvers, MA, USA) or mouse (1/10.000) for 60 min. […]

In test [3] the test system is HeLa cells. The test can be described thus: Annexin V-FITC/PI flow cytometry apoptosis. The conditions noted are these: from 10 μM, 24 h. The method, then:
The apoptotic effect of the substances was explored with the commercial FITC Annexin V Apoptosis Detection Kit I (BD Biosciences, New Jersey, USA) according to the manufacturer’s protocol. The cells were plated on 6-well plates (5 × 10^5 cells/well), and following 24 h incubation, sulfonamide compounds at concentrations of 10 and 25 μM were administered, followed by incubation for 24 h. The cells were raised by trypsin handling, and transferred into new tubes within 1X binding buffer, as 1 × 10^6 in each tube, which was incubated for 15 min at room temperature. 5 μL of fluorochrome-conjugated Annexin V and 5 μL of Propidium Iodide dyes were then added. 100 μl 1X binding buffer was added to the cells, and they were then centrifuged at 1200 rpm, for 5 min. Finally, the cells were analysed in flow cytometry (BD Via, New Jersey, USA).
On the technique in general: Flow cytometry measures light scatter and fluorescence of single cells or particles in a stream.

Test [4] relates to HeLa cells. The experiment in a line: Intracellular ROS detection. The following applies: 0–25 μM. The method, then: Intracellular free radicals were measured using the Cellular Reactive Oxygen Species Detection Assay commercial kit (Red Fluorescence, Abcam, Cambridge-UK, 186027). In this kit, a fluorescence probe that is permeable to the cell is used. When the probe reacts with ROS, it produces red fluorescence. The process was applied following kit protocol. The cells were plated on black plates, as 3 × 10^4 in 100 µl, and incubated for 24 h. Sulfonamide compounds in PBS were administered at doses of 0–25 μM and incubated at 37 °C in an atmosphere of 5% CO2 for 1 h (protected from light). After the compounds were poured out, the wells were filled with 100 µl of ROS Deep Red Working Solution and incubated at 37 °C in an atmosphere of 5% CO2 for 1 h. A fluorometry device (Spectramax, M5) Ex/Em = 650/675 nm (cut off = 665 nm) was used to take the measurements.

A further test has as its system HT-29. The test can be described thus: WST-1 cytotoxicity, HT-29. The method, then:
as §1, §2

Entries after “also recorded” stand apart in the source; their conditions may differ.

For `NS(=O)(=O)c1ccc(CCN=Cc2cc(Cl)ccc2O)cc1` [Compound A-1], the half-maximal inhibitory concentration (IC50) with MDA-MB-231 (MDA-MB-231, 24 h) turned out to be 293 µM; in the test with MDA-MB-231 (MDA-MB-231, 48 h), 65.9 µM; in the test on MDA-MB-231 (MDA-MB-231, 72 h), 37.3 µM; with HeLa (24 h) it was 28.9 µM; in the test with HeLa (48 h), 17.4 µM; with HeLa (72 h), 13.7 µM. The concentration for half-maximal inhibition (IC50) amounted to 299 µM in the test on HT-29 (HT-29, 24 h); 52.6 µM in the test with HT-29 (HT-29, 48 h); 123 µM in the test on HT-29 (HT-29, 72 h). The “intracellular free amino acid levels” value in the test with HeLa cells [1] was “the amino acids showed a decline as compared to the negative control group; also recorded: increase in tyrosine levels and a reduction in other amino acids”. Besides, the “cleaved caspase 3, 8, 9 and c-PARP protein levels” value in the test on HeLa cells [2] was “significant increase”. This compound showed an early apoptosis with HeLa cells [3] of 48.7%. The “intracellular ROS” value in the test with HeLa cells [4] is reported as “increase the intracellular ROS in HeLa cells in a dose-dependent manner”.

One may read the IC50 as the concentration that gives 50% inhibition.
